According to patent US5767124A, “Polymorphic forms of a growth hormone secretagogue” (priority 1996, dated 1998):
Entries after “also recorded” stand apart in the source; their conditions may differ. Like-named read-outs stand apart in the source and are kept apart here.

Tests used:
Assay type in all cases: physicochemical
[1] = Solubility of CBZ-sulfonamide 1 in toluene/n-PrOH mixtures by HPLC assay; settings: 0% toluene in n-PrOH
Method: The temperature of both the head and pot rose from 94° C. to 98° C. during the solvent switch. Toluene and n-PrOH form an azeotrope boiling at 97.2° C. composed of 47.5% toluene and 52.5% n-PrOH. The mixture was allowed to cool gradually to 20° C. over 3h and aged for 12 h. […] The solubility of the sulfonamide in various mixtures of toluene and n-PrOH has been determined by HPLC assay: […]

[2] = Hygroscopicity: storage of solid forms in constant relative humidity chambers; settings: for % Gain/Loss / change of sample on storage at high humidity (footnote): room temperature; for change of sample on storage at high humidity (footnote): Form II 48 hrs at 65-100% RH, Form I 96 hrs at 88 and 100% RH
Method: (§1) The total volatiles content (as established by TGA analysis) of solid samples of Forms I, II, III and IV upon exposure to various controlled humidities is tabulated below.
Hygroscopicity was assessed by storing the solid compound in constant relative humidity chambers. […] The results are tabulated below in Tables 1 and 2.

[3] = Total volatiles / water content (TGA) and water of hydration; settings: for moles of water per mole of compound: appears to be a hygroscopic hydrate
From the text: as §1

[4] = Solubility of Forms I and II in water, buffer, ethanol/water and isopropanol
Method: The solubility of Form I in distilled water at room temperature is >100 mg/mL. The aqueous solubility (RT) of Form II in buffered solutions (pH 4-9) is >100 mg/mL. The solubility of Form I in ethanol/water mixtures is shown below: […]

[5] = Thermal stability of neat compound (solid state, HPLC); settings: for thermal stability in words: neat solid; for remaining at 168 h: 1 Wk; for remaining at 336 h: 2 Wks; for remaining at 672 h: 4 Wks; for remaining at 4032 h: 24 Wks; for remaining at 1344 h: 8 Wks; for remaining at 1008 h: 6 Wks; for remaining at 1008 h / remaining at 2856 h: read-out: % Inital; for remaining at 2856 h: 17 Wks
Method: The solid state stability of neat compound was assessed by storage of the drug in glass screw-cap vials in the dark. Samples were assayed by HPLC and the parent compound was quantitatively analyzed. The isocratic method that was employed is outlined below:
Column: Beckman Ultrasphere ODS (250×4.6 mm, 5 μ)
Mobile Phase: 0.1% TEA, pH 4.0 with H3 PO4 :Acetonitrile (65:35)
Detection Wavelength: 228 nm
Column Temperature: Ambient
Injection Volume: 20 μL of N-[I(R)-[(1,2-dihydro-1-methanesulfonyl-spiro[3H-indole-3,4'-piperdin]-1'- yl)carbonyl]-2-(phenylmethyl-oxy)ethyl]-2-amino-2-methylpropanamide methanesulfonate (50 μg/mL)
The results shown below for Forms I and II were calculated as weight percent.

[6] = Bulk density; settings: compared with other forms
[7] = 76% RH, 48 hrs, footnote a = sample becomes a gummy semisolid
[8] = solid state, 40 °C, in the dark, read-out: % Initial
[9] = solid state, 60 °C, in the dark, read-out: % Initial
[10] = solid state, 80 °C, in the dark, read-out: % Initial
[11] = 65% RH, 48 hrs, footnote a = sample becomes a gummy semisolid
[12] = 100% RH, 48 hrs, footnotes a = gummy semisolid, b = converts to Form IV upon exposure to ambient humidity
[13] = solid state, 40 °C, in the dark
[14] = solid state, 60 °C, in the dark
[15] = solid state, 80 °C, in the dark

CS(=O)(=O)N1CC2(CCN(C(=O)OCc3ccccc3)CC2)c2ccccc21 [Form 1, CBZ-Spiroindoline-methanesulfonamide]
solubility of 1 [1]: 2.36 mg/mL

CC(C)(N)C(=O)N[C@H](COCc1ccccc1)C(=O)N1CCC2(CC1)CN(S(C)(=O)=O)c1ccccc12 [Form III, N-[1(R)-[(1,2-dihydro-1-methanesulfonylspiro[3H-indole-3,4'-piperdin]-1'-yl)carbonyl]-2-(phenylmethyloxy)ethyl]-2-amino-2-methylpropanamide methanesulfonate]
hygroscopicity in words [2]: shows an increase in moisture after 48-hr storage at 33% RH | % Gain/Loss ([2]; 11% RH, 48 hrs): -0.15% | % Gain/Loss ([2]; 33% RH, 48 hrs): +2.23% | % Gain/Loss ([2]; 47% RH, 48 hrs): +3.99% | % Gain/Loss [2, 7]: +3.76% | water content (total volatiles by TGA) [3]: 4.5-5.0 wt %

CC(C)(N)C(=O)N[C@H](COCc1ccccc1)C(=O)N1CCC2(CC1)CN(S(C)(=O)=O)c1ccccc12 [Form II, N-[1(R)-[(1,2-dihydro-1-methanesulfonylspiro[3H-indole-3,4'-piperdin]-1'-yl)carbonyl]-2-(phenylmethyloxy)ethyl]-2-amino-2-methylpropanamide methanesulfonate]
solubility ([4]; buffer ph 4-9, RT, pH 4-9, read-out: aqueous solubility in buffered solutions): > 100 mg/mL | solubility in IPA ([4]; crystalline material from EtOAc-EtOH): 12 mg/mL | solubility in isopropanol [4]: 12.3 mg/mL | % Initial ([5]; 80 °C, 12 Wks, in the dark, 120960 min): 100.4% | thermal stability in words [5]: good thermal stability | remaining at 168 h [5, 8]: 99.7% | remaining at 336 h [5, 8]: 101% | remaining at 672 h [5, 8]: 99.5% | remaining at 4032 h [5, 8]: 100% | remaining at 168 h [5, 9]: 99.4% | remaining at 336 h [5, 9]: 99.6% | remaining at 672 h [5, 9]: 100% | remaining at 1344 h [5, 9]: 100% | remaining at 2016 h ([5]; solid state, 60 °C, 12 Wks, in the dark, read-out: % Initial): 101% | remaining at 4032 h [5, 9]: 101% | remaining at 168 h [5, 10]: 99.2% | remaining at 336 h [5, 10]: 100% | remaining at 672 h [5, 10]: 99.2% | remaining at 1344 h [5, 10]: 99.8% | hygroscopicity in words [2]: hygroscopic and exhibits a large increase in moisture starting at 65% RH | % Gain/Loss ([2]; 0% RH, 48 hrs): +0.08% | % Gain/Loss ([2]; 11% RH, 48 hrs): +0.02% | % Gain/Loss ([2]; 33% RH, 48 hrs): +0.33% | % Gain/Loss ([2]; 47% RH, 48 hrs): +0.39% | % Gain/Loss [2, 11]: > 10.0% | % Gain/Loss [2, 7]: > 10.0% | % Gain/Loss [2, 12]: > 10.0% | change of sample on storage at high humidity (footnote) [2]: Sample becomes a gummy semisolid; also recorded: Converts to Form IV upon exposure to ambient humidity | water content (total volatiles by TGA) [3]: 0.56 wt %

CC(C)(N)C(=O)N[C@H](COCc1ccccc1)C(=O)N1CCC2(CC1)CN(S(C)(=O)=O)c1ccccc12 [Form V, N-[1(R)-[(1,2-dihydro-1-methanesulfonylspiro[3H-indole-3,4'-piperdin]-1'-yl)carbonyl]-2-(phenylmethyloxy)ethyl]-2-amino-2-methylpropanamide methanesulfonate]
hygroscopicity in words [2]: hygroscopic | moles of water per mole of compound [3]: 1 moles of water per mole

CC(C)(N)C(=O)N[C@H](COCc1ccccc1)C(=O)N1CCC2(CC1)CN(S(C)(=O)=O)c1ccccc12 [Form IV, N-[1(R)-[(1,2-dihydro-1-methanesulfonylspiro[3H-indole-3,4'-piperdin]-1'-yl)carbonyl]-2-(phenylmethyloxy)ethyl]-2-amino-2-methylpropanamide methanesulfonate]
% Gain/Loss ([2]; 0% RH, 48 hrs): -7.8% | % Gain/Loss ([2]; 11% RH, 48 hrs): -4.9% | % Gain/Loss ([2]; 33% RH, 48 hrs): +0.3% | % Gain/Loss ([2]; 47% RH, 48 hrs): +0.7% | % Gain/Loss ([2]; 66% RH, 48 hrs): +1.4% | % Gain/Loss [2, 7]: +1.5% | % Gain/Loss [2, 12]: +5.3% | bulk density [6]: higher bulk density than other forms | water content (total volatiles by TGA) [3]: 9.5-10.0 wt % | moles of water per mole of compound [3]: 3.5 moles of water per mole

CC(C)(N)C(=O)N[C@H](COCc1ccccc1)C(=O)N1CCC2(CC1)CN(S(C)(=O)=O)c1ccccc12 [Form I, N-[1(R)-[(1,2-dihydro-1-methanesulfonylspiro[3H-indole-3,4'-piperdin]-1'-yl)carbonyl]-2-(phenylmethyloxy)ethyl]-2-amino-2-methylpropanamide methanesulfonate]
solubility ([4]; distilled water, water, room temperature, read-out: solubility in distilled water): > 100 mg/mL | solubility ([4]; ethanol/water 25/75, organic solvent or mixture, % Ethanol/H2O 25/75, read-out: Solubility in ethanol/water): > 100 mg/mL | solubility ([4]; ethanol/water 50/50, organic solvent or mixture, % Ethanol/H2O 50/50, read-out: Solubility in ethanol/water): > 100 mg/mL | solubility ([4]; ethanol/water 75/25, organic solvent or mixture, % Ethanol/H2O 75/25, read-out: Solubility in ethanol/water): > 90 mg/mL | solubility in isopropanol [4]: 4.6 mg/niL | solubility ([4]; organic solvent or mixture, 100% ethanol, read-out: Solubility in ethanol): > 90 mg/mL | thermal stability in words [5]: good thermal stability | remaining at 1008 h [5, 13]: 100% | remaining at 2856 h [5, 13]: 98.7% | remaining at 1008 h [5, 14]: 101% | remaining at 2856 h [5, 14]: 101% | remaining at 1008 h [5, 15]: 101% | remaining at 2856 h [5, 15]: 99.4% | hygroscopicity in words [2]: non-hygroscopic; also recorded: the wet crystals are very hygroscopic; also recorded: No substantial moisture increase is exhibited by Form I except when stored above 76% RH | % Gain/Loss ([2]; 0% RH, 48 hrs): -0.02% | % Gain/Loss ([2]; 7% RH, 96 hrs): +0.4% | % Gain/Loss ([2]; 11% RH, 48 hrs): -0.05% | % Gain/Loss ([2]; 22% RH, 96 hrs): +0.3% | % Gain/Loss ([2]; 47% RH, 48 hrs): +0.21% | % Gain/Loss ([2]; 47% RH, 96 hrs): +0.5% | % Gain/Loss [2, 11]: +0.37% | % Gain/Loss ([2]; 68% RH, 96 hrs): +0.6% | % Gain/Loss [2, 7]: +0.12% | % Gain/Loss ([2]; 88% RH, 96 hrs, * = deliquescent material): +12.9% | % Gain/Loss [2, 12]: > 12.0% | % Gain/Loss ([2]; 100% RH, 96 hrs, * = deliquescent material): +23.9% | change of sample on storage at high humidity (footnote) [2]: deliquescent material | water content (total volatiles by TGA) [3]: 0.79 wt % | water content in words [3]: relatively anhydrous
